Literature values in patent US8524769B2, “Process for producing a fraction enriched up to 100% of 3-O-acetyl-11-keto-beta-boswellic acid from an extract containing a mixture of boswellic acids” (Laila Impex, priority 2002, dated 2013).

System: 5-lipoxygenase (5-LO)
Details: compared among all six boswellic acids; Sailer et al., British J. Pharmacology 117, 615-618, 1996

5-lipoxygenase (5-LO), sequence (P09917 whole entry, species assumed): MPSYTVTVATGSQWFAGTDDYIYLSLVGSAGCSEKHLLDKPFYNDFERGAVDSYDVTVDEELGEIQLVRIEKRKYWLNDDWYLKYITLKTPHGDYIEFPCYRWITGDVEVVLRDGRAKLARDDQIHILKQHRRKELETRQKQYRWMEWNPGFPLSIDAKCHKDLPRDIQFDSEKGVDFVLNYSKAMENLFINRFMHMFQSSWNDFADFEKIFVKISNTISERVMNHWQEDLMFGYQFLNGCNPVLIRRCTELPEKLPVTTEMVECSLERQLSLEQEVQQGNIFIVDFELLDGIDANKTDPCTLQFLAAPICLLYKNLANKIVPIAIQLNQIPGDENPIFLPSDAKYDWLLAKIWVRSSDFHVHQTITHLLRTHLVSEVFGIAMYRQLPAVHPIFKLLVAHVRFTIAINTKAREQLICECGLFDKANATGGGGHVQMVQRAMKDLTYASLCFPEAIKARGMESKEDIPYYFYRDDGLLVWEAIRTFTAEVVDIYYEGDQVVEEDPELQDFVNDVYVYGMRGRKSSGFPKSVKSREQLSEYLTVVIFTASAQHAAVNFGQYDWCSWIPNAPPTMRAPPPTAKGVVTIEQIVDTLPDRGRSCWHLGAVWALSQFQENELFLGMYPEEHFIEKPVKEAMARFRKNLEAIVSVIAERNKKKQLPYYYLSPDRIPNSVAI

3-O-acetyl-11-keto-β-boswellic acid [AKBA]
inhibitory activity on 5-lipoxygenase: most pronounced inhibitory activity
